Test results: PubChem BioAssay (NCI)
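These data come from cells grown in 96-well plates and exposed to compound for 48 hours at five concentrations. At the TGI there is no net growth.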

Legend:
Assay in all cases: NCI anticancer screen, dose series, 48 h
ACHN renal = test system: ACHN renal
U251 CNS = test system: U251 CNS
HOP-92 NSCLC = test system: HOP-92 NSCLC
RXF 393 renal = test system: RXF 393 renal
EKVX NSCLC = test system: EKVX NSCLC
SW-620 colon = test system: SW-620 colon
KM12 colon = test system: KM12 colon
OVCAR-8 ovarian = test system: OVCAR-8 ovarian
HT29 colon = test system: HT29 colon
MCF7 breast = test system: MCF7 breast

SMILES | TGI (ACHN renal) [µM] | TGI (U251 CNS) [µM] | TGI (HOP-92 NSCLC) [µM] | TGI (RXF 393 renal) [µM] | TGI (EKVX NSCLC) [µM] | TGI (SW-620 colon) [µM] | TGI (KM12 colon) [µM] | TGI (OVCAR-8 ovarian) [µM] | TGI (HT29 colon) [µM] | TGI (MCF7 breast) [µM]
CCCC(CCC(=O)O)(CCC(=O)O)[N+](=O)[O-] | > 100 | > 100 | > 100 | > 100 | > 100 | > 100 | > 100 | > 100 | > 100 | > 100
CCN1CC2(CO)CCC(OC)C34C5CC6C(OC)CC(O)(C5C6OC)C(O)(C(OC)C23)C14 (centres undefined) | – | > 375 | > 375 | > 375 | > 65 | > 375 | > 375 | > 375 | > 375 | > 375
COC(=O)C1=C(C(=O)OC)SC2(S1)C(C(=O)OC)=C(C(=O)OC)Sc1c2ssc1=O | 2.22 | 4.68 | 2.3 | 2.7 | 6.16 | 2.47 | 15.4 | 2.69 | 1.78 | 4.65
O=S1(=O)OCCOS(=O)(=O)C1C1c2ccccc2-c2ccccc21 | > 100 | 57.9 | > 100 | > 100 | > 100 | > 100 | > 100 | > 100 | > 100 | > 100
O/N=C1/C(=C/c2ccc(Br)cc2)CCCC1C(NO)c1ccc(Br)cc1 (centres undefined) | 31.2 | 45.3 | 26.5 | 31.1 | – | 38.6 | 38.3 | 31.5 | 35.4 | –
COc1ccc2nc3c(nc2c1)C(C)(C)C=C3c1ccc(Br)cc1 | > 100 | > 100 | > 100 | > 100 | > 100 | 21.9 | > 100 | > 100 | > 100 | > 100
CC(C)c1cccc(C(C)C)c1NC(=O)/C(Cc1nc2ccc(Cl)cc2[nH]c1=O)=N\NC(=O)C[N+](C)(C)C | > 100 | – | > 100 | > 100 | > 100 | > 100 | > 100 | > 100 | > 100 | –
CC(=O)Nc1ccc(S(=O)(=O)Nc2cnc3ccccc3n2)cc1 | > 100 | > 100 | > 100 | > 100 | > 100 | > 100 | > 100 | > 100 | > 100 | –
O=C(Cn1cc(I)c(C(=O)NCC(O)CO)n1)NCC(O)CO (centres undefined) | > 100 | > 100 | > 100 | > 100 | > 100 | > 100 | > 100 | > 100 | > 100 | –
Cc1ccc(C2=C(c3ccccc3)C(O)(c3ccccc3)C(c3ccccc3)=C2c2ccc(C)cc2)cc1 | > 100 | > 100 | – | > 100 | > 100 | > 100 | > 100 | > 100 | > 100 | –
CCOC(=O)C1=C(C)NC(c2ccccc2)=C(C(=O)OCc2ccccc2)C1C#Cc1ccccc1 (centres undefined) | – | > 100 | – | > 100 | > 100 | > 100 | > 100 | > 100 | – | > 100
Nc1nc(Cl)cc(OCC2(CO)CCCCC2)n1 | > 100 | > 100 | > 100 | > 100 | > 100 | > 100 | – | > 100 | > 100 | > 100
COc1ccc(/C=N/NC(=O)NCCNCCO)cc1 | > 100 | > 100 | > 100 | > 100 | – | > 100 | > 100 | > 100 | > 100 | –
CC(C)C(N=C1CC2CCC1(C(=O)Nc1ccccc1O)C2(C)C)c1ccccc1 (centres undefined) | > 10 | > 10 | > 10 | – | > 10 | > 10 | > 10 | > 10 | > 10 | –
CC(=O)O[C@H]1C(=O)[C@@]2(C)C(C(OC(=O)c3ccccc3)[C@]3(O)CC(OC(=O)C(O)C(NC(=O)c4cccc(Cl)c4)c4ccccc4)C(C)=C1C3(C)C)[C@]1(OC(C)=O)CO[C@@H]1C[C@@H]2O (some centres undefined) | > 10 | 8.9 | > 10 | – | > 10 | > 10 | > 10 | > 10 | > 10 | > 10
c1ccc(C2SCc3nc4ccccc4n32)cc1 (centres undefined) | > 100 | > 100 | > 100 | > 100 | > 100 | > 100 | > 100 | > 100 | > 100 | –
CN1C(=O)c2c(c3c4ccccc4n(C)c3c3c2c2ccccc2n3C)C1=O | > 100 | > 100 | > 100 | – | > 100 | > 100 | > 100 | > 100 | > 100 | > 100
CSCCC(NOC(=O)Cc1ccccc1)P(=O)(O)c1ccccc1 (centres undefined) | > 100 | > 100 | > 100 | – | – | > 100 | – | > 100 | > 100 | > 100
C#CCN(Cc1ccc2nc(-c3ccccc3)c(Cl)nc2c1)c1ccc(Cl)c(Cl)c1 | > 100 | > 100 | > 100 | – | > 100 | > 100 | > 100 | > 100 | > 100 | –
N#Cc1cc([N+](=O)[O-])ccc1NC(=O)C(=O)Nn1c(=S)[nH]c2ccccc2c1=O | – | > 100 | > 100 | > 100 | > 100 | > 100 | > 100 | > 100 | > 100 | –
CCN(CC)CCNC(=O)C1COc2ccc(-c3cc(=O)c4ccccc4o3)cc2O1 (centres undefined) | – | > 65.2 | 53.9 | 35.4 | 61 | 45.9 | 35.4 | 33.4 | 34.6 | 44.6
C=C1C(=O)OC2C=C(C)CC3C=C(CCC=C(C)CCC12)C(=O)O3 (centres undefined) | – | 121 | 116 | 82.3 | 118 | 107 | 109 | 174 | 131 | 106
O=C(NC1CCCCC1)N1CCNC1=S | > 100 | – | > 100 | > 100 | > 100 | > 100 | > 100 | > 100 | > 100 | –
